Experimental data taken from US6946253B2, “Herpes zinc finger motifs” (University Court of the University of Glasgow, priority 2000, dated 2005).

Experiments:
HSV-2 strain HG52 = test: Virus replication (virus yield) in BHK21/C13 cells; format: cell-based, herpes simplex virus type 2; settings: experiment 2 (Table 2), moi 5, 24 h pi
Procedure: (§1) Virus replication. Semi-confluent monolayers of BHK21/C13 cells (2×10^6) were pre-incubated with the appropriate drug concentration, 0.1% DMSO (v/v) or mock treated as a control for 24 h and subsequently infected at a multiplicity of infection (moi) of 5 plaque forming units (pfu)/cell with either herpes simplex virus type 1 (HSV-1) strain 17 or HSV-2 strain HG52 and harvested 24 h post-infection (pi). The virus yield was determined by releasing the virus into the supernatant by sonication and titration on BHK21/C13 cells. Results were expressed as pfu/10^6 cells and % reduction in yield as compared to the untreated control (23).
(§2) Antiviral effect of ADA and DIBA. Two experiments were carried out. In the first, the effect of varying concentrations of ADA and DIBA on the replication of HSV-1 was analysed. In the second, the effect on both HSV-1 and HSV-2 was determined.

[1] = test system: herpes simplex virus type 1 (HSV-1) strain 17; test: Virus replication (virus yield) in BHK21/C13 cells; format: cell-based; settings: moi 5, 24 h pi
Procedure: as §1, §2

HSV-1 = test: Plaque reduction assay in BHK21/C13 cells; format: cell-based, herpes simplex virus type 1; settings: HSV-1, plaque reduction assay
Procedure: Plaque reduction assay. Confluent monolayers (4×10^6 cells) of BHK21/C13 cells were preincubated with the appropriate drug concentration, 0.1% DMSO(v/v) or mock treated as a control for 24 h and subsequently infected at a moi of 400 pfu/plate with either HSV-1 or HSV-2 and incubated for 48 h at 37° C. […] Tests of each drug concentration were performed in triplicate and the average of the 3 plates calculated. Results were expressed as pfu/plate and % of the number of plaques on the untreated control plates (23).
(§3) Plaquing Efficiency in the Presence of ADA and DIBA. To determine if the reduction in virus yield seen in the previous experiment was due to a virucidal effect, inhibition of virus entry (adsorption penetration) or intracellular replication, a plaque reduction assay was carried out. Here, the ability of the virus to plaque was measured. An effect on the stability of the virus particle or virus entry would lead to a reduction in the number of plaques compared to the control untreated plates for a given amount of virus. In contrast, an effect on intracellular virus replication would not lead to a significant reduction in plaques.

HSV-2 = test: Plaque reduction assay in BHK21/C13 cells; format: cell-based, herpes simplex virus type 2; settings: HSV-2, plaque reduction assay
Procedure: Plaque reduction assay. Confluent monolayers (4×10^6 cells) of BHK21/C13 cells were preincubated with the appropriate drug concentration, 0.1% DMSO(v/v) or mock treated as a control for 24 h and subsequently infected at a moi of 400 pfu/plate with either HSV-1 or HSV-2 and incubated for 48 h at 37° C. […] Tests of each drug concentration were performed in triplicate and the average of the 3 plates calculated. […]
as §3

[2] = test system: baby hamster kidney BHK21/C13 cells; test: Cytotoxicity, Trypan Blue exclusion staining; format: cell-based; settings: 100 μM (highest concentration), up to 4 days
Procedure: Cytotoxicity. Both compounds azodicarbonamide (ADA, NSC 674447) and 2,2′,-dithiobisbenzamide (DIBA, NSC 654077) were dissolved at the appropriate concentration in 0.1% (v/v) dimethylsulphoxide (DMSO) in Eagle's modified medium. Confluent monolayers (2×10^6) of baby hamster kidney BHK21/C13 cells were incubated with various concentrations of either ADA or DIBA (1,10,100 μM) or as a control 0.1% (v/v) DMSO, and cell viability determined every day for 4 days by Trypan Blue exclusion staining (23).
Determination or cytotoxicity of ADA and DIBA. In view of the distinctive sequence conservation of the IE63 zinc finger two previously known zinc-ejecting anti-HIV-1 compounds, 2,2′-dithiobisbenzamide (DIBA) and azodicarbonamide (ADA) were tested for their effect on herpesvirus. To separate any effect on cell viability from a specific effect on virus replication, the effect of incubating BHK21/C13 cells in various concentrations of ADA, DIBA, and 0.1% (v/v) DMSO as a control, for up to 4 days was determined. Even at the highest concentration used (100 μM) 95% of the cells were viable compared to untreated BHK21/C13 cells (data not shown). Indeed any cytotoxicity observed was due to the DMSO in which the drugs were dissolved, as the cytotoxicity was equally great in those cells incubated with only DMSO (data not shown).

[3] = experiment 1 (Table 1), HSV-1, 1 μM
[4] = experiment 1 (Table 1), HSV-1, 10 μM
[5] = experiment 1 (Table 1), HSV-1, 100 μM
[6] = experiment 2 (Table 2), HSV-1, 1 μM
[7] = experiment 2 (Table 2), HSV-1, 10 μM
[8] = experiment 2 (Table 2), HSV-1, 100 μM

SMILES	% UNTREATED CONTROL (virus yield) (HSV-2 strain HG52; HSV-2, 1 μM) [%]	VIRUS YIELD (pfu/10^6 BHK cells) (HSV-2 strain HG52; HSV-2, 1 μM)	VIRUS YIELD (pfu/BHK cell) (HSV-2 strain HG52; HSV-2, 1 μM)	% UNTREATED CONTROL (virus yield) (HSV-2 strain HG52; HSV-2, 10 μM) [%]	VIRUS YIELD (pfu/10^6 BHK cells) (HSV-2 strain HG52; HSV-2, 10 μM)	VIRUS YIELD (pfu/BHK cell) (HSV-2 strain HG52; HSV-2, 10 μM)	VIRUS YIELD (pfu/10^6 BHK cells) (HSV-2 strain HG52; HSV-2, 100 μM)	VIRUS YIELD (pfu/BHK cell) (HSV-2 strain HG52; HSV-2, 100 μM)	% UNTREATED CONTROL (virus yield) [1, 3] [%]	VIRUS YIELD (pfu/10^6 BHK cells) [1, 3]	VIRUS YIELD (pfu/BHK cell) [1, 3] [pfu/BHK cell]	% UNTREATED CONTROL (virus yield) [1, 4] [%]	VIRUS YIELD (pfu/10^6 BHK cells) [1, 4]	VIRUS YIELD (pfu/BHK cell) [1, 4] [pfu/BHK cell]	% UNTREATED CONTROL (virus yield) [1, 5] [%]	VIRUS YIELD (pfu/10^6 BHK cells) [1, 5]	VIRUS YIELD (pfu/BHK cell) [1, 5] [pfu/BHK cell]	% UNTREATED CONTROL (virus yield) [1, 6] [%]	VIRUS YIELD (pfu/10^6 BHK cells) [1, 6]	VIRUS YIELD (pfu/BHK cell) [1, 6] [pfu/BHK cell]	also measured
NC(=O)c1ccccc1SSc1ccccc1C(N)=O [DIBA, 2,2′-dithiobisbenzamide]	17	1.2 × 10^7 pfu/10^6 BHK cells	12	2	1.4 × 10^6 pfu/10^6 BHK cells	1.4	3.1 × 10^5 pfu/10^6 BHK cells	0.31	85	6.8 × 10^8 pfu/10^6 BHK cells	680	20	1.6 × 10^8 pfu/10^6 BHK cells	160	2.5	2 × 10^7 pfu/10^6 BHK cells	20	20	1.2 × 10^8 pfu/10^6 BHK cells	120	% UNTREATED CONTROL (virus yield) [1, 7]: 1.6%; VIRUS YIELD (pfu/10^6 BHK cells) [1, 7]: 9.6 × 10^6 pfu/10^6 BHK cells; VIRUS YIELD (pfu/BHK cell) [1, 7]: 9.6 pfu/BHK cell; VIRUS YIELD (pfu/10^6 BHK cells) [1, 8]: 1.9 × 10^6 pfu/10^6 BHK cells; VIRUS YIELD (pfu/BHK cell) [1, 8]: 1.9 pfu/BHK cell; size of the plaques (HSV-1): reduction in the size of the plaques; size of the plaques (HSV-2): reduction in the size of the plaques; cells viable compared to untreated BHK21/C13 cells [2]: 95%
NC(=O)N=NC(N)=O [ADA, azodicarbonamide]	13	9.4 × 10^6 pfu/10^6 BHK cells	9.4	1.2	8.5 × 10^5 pfu/10^6 BHK cells	0.85	2.3 × 10^5 pfu/10^6 BHK cells	0.23	76	6.1 × 10^8 pfu/10^6 BHK cells	610	19	1.5 × 10^8 pfu/10^6 BHK cells	150	11	9 × 10^6 pfu/10^6 BHK cells	9.0	15	9.3 × 10^7 pfu/10^6 BHK cells	93	% UNTREATED CONTROL (virus yield) [1, 7]: 1.4%; VIRUS YIELD (pfu/10^6 BHK cells) [1, 7]: 8.5 × 10^6 pfu/10^6 BHK cells; VIRUS YIELD (pfu/BHK cell) [1, 7]: 8.5 pfu/BHK cell; VIRUS YIELD (pfu/10^6 BHK cells) [1, 8]: 1.2 × 10^6 pfu/10^6 BHK cells; VIRUS YIELD (pfu/BHK cell) [1, 8]: 1.2 pfu/BHK cell; size of the plaques (HSV-1): reduction in the size of the plaques; size of the plaques (HSV-2): reduction in the size of the plaques; cells viable compared to untreated BHK21/C13 cells [2]: 95%
